Measured values as given in PubChem BioAssay (NCI).
Values joined by “and” are separate entries in the source; they are usually repeats but may differ in a detail not shown here. Equal values may be shown once.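 Five compound concentrations were applied to cells in 96-well plates for 48 hours; endpoints were derived by simple linear interpolation of the resulting dose-response curve. Here, GI50 denotes the concentration required for 50% inhibition of growth. TGI: concentration producing complete growth inhibition.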

How the values were obtained:
Test in all cases: DTP human tumour cell line panel, 48 h
[1] = system: IGROV1 ovarian
[2] = system: SNB-19 CNS
[3] = system: SK-MEL-2 melanoma
[4] = system: UACC-257 melanoma
[5] = system: ACHN renal
[6] = system: NCI-H460 lung
[7] = system: UACC-62 melanoma
[8] = system: SF-295 CNS
[9] = system: CCRF-CEM leukemia
[10] = system: HOP-62 NSCLC

SMILES	GI50 [1]	TGI [1]	GI50 [2]	TGI [2]	GI50 [3]	TGI [3]	GI50 [4]	TGI [4]	GI50 [5]	TGI [5]	GI50 [6]	TGI [6]	GI50 [7]	TGI [7]	GI50 [8]	TGI [8]	GI50 [9]	TGI [9]	GI50 [10]	TGI [10]
Cn1cc(C2=C(c3ccc4ccccc4c3)C(=O)NC2=O)c2ccccc21	> 19.5 µM	> 25 µM	> 25 µM	> 25 µM	> 25 µM	> 25 µM	> 25 µM	> 25 µM	> 25 µM	> 25 µM	> 25 µM	> 25 µM	21.3 µM	> 25 µM	> 23.5 µM	> 25 µM	> 25 µM	> 25 µM	> 25 µM	> 25 µM
CNCCNc1c2c(c(NCCNC)c3c(CN(C)C)c[nH]c13)C(=O)c1ccccc1C2=O	0.933 µM	12.9 µM	12.2 µM	> 41.7 µM	2.94 µM	16.4 µM	20.1 µM	45.7 µM	3.52 µM	14.4 µM	1.46 µM	11.2 µM	2.78 µM	19.7 µM	1.59 µM	9.16 µM	0.716 µM	34.2 µM	2.9 µM	10.1 µM
O=[N+]([O-])c1nccn1CC(O)c1ccc(F)cc1 (stereo not given)	–	> 100 µM	–	> 100 µM	–	> 100 µM	–	> 100 µM	–	> 100 µM	–	> 100 µM	–	> 100 µM	–	> 100 µM	–	> 100 µM	–	> 100 µM
Cc1ccc(Cl)cc1Nc1nc(C(F)(F)F)ccc1C(=O)N1CCN(c2ccc(F)cc2)CC1	0.21 µM	27.2 µM	14.9 µM	30.5 µM	16.1 µM	37.1 µM	19.7 µM	46.5 µM	11.8 µM	47.7 µM	16 µM	36.9 µM	11.5 µM	24.1 µM	15.6 µM	32.5 µM	15.1 µM	53.5 µM	14.7 µM	29.8 µM
C=C(C=O)[C@@H]1C2OC(=O)C(=C)[C@@H]2CC(O)[C@@]1(C)CC (stereo not given in full)	–	> 28.7 µM	–	> 89.7 µM	–	21.7 µM	–	26.9 µM	–	27.1 µM	–	51.4 µM	–	13.9 µM	–	57.2 µM	–	6.44 µM	–	> 100 µM
O=c1n(CC2CO2)c(=O)n(CC2CO2)c(=O)n1CC1CO1 (stereo not given)	24.9 µM and 7.31 µM	96 µM and > 100 µM	22 µM and 6.55 µM	98.3 µM and > 100 µM	36.9 µM and 33 µM	215 µM and > 100 µM	15.4 µM	38.4 µM and 109 µM	3.68 µM and 0.504 µM	140 µM and > 100 µM	6.61 µM and 0.743 µM	32 µM and 29.6 µM and 12.2 µM	5.58 µM	41.9 µM and 75.5 µM	4.18 µM	34.1 µM and 126 µM and > 100 µM	6.05 µM and 2.92 µM	223 µM and > 100 µM	6.38 µM and 15.1 µM	38.8 µM and 96.1 µM and > 100 µM
CCN1CCN(c2ccc(Nc3cc(N(C)C(=O)Nc4c(Cl)c(OC)cc(OC)c4Cl)ncn3)cc2)CC1	4.12 µM	22.6 µM	4.06 µM	18.7 µM	7.12 µM	22.7 µM	1.77 µM	3.7 µM	2.18 µM	13.6 µM	1.87 µM	5.42 µM	1.66 µM	3.14 µM	11.4 µM	25.9 µM	1.9 µM	6.01 µM	4.03 µM	15.5 µM
CC[C@]12C=CCN3CC[C@@]4(c5ccc(OC)cc5N(C)[C@H]4[C@@](O)(C(=O)OC)[C@@H]1OC(=O)CCC[P+](c1ccccc1)(c1ccccc1)c1ccccc1)[C@@H]32	0.235 µM and 0.394 µM	0.923 µM and 1.61 µM	0.296 µM and 0.382 µM	6.04 µM and 1.66 µM	0.441 µM and 0.356 µM	1.52 µM and 1.27 µM	0.364 µM and 0.275 µM	1.82 µM and 0.94 µM	5.32 µM and 7.58 µM	14.5 µM and 20.1 µM	1.38 µM and 1.31 µM	5.82 µM and 11 µM	0.3 µM and 0.379 µM	0.964 µM and 1.42 µM	1.49 µM and 2.22 µM	4.66 µM and 5.65 µM	0.64 µM and 0.609 µM	5.44 µM and 2.68 µM	1.84 µM and 2.18 µM	7.71 µM and 7.08 µM
Cc1c2cccnc2c(C)c2c1c1cc(CO)ccc1n2C	0.579 µM	9.34 µM	2.67 µM	14.6 µM	2.87 µM	8.47 µM	1.51 µM	4.25 µM	0.937 µM	6.89 µM	1.23 µM	6.12 µM	1.41 µM	4.56 µM	1.74 µM	10.1 µM	1.87 µM	45.7 µM	1.31 µM	6.52 µM
O=S(O)CCCCSSCC(O)C(O)CSSCCCCS(=O)O (stereo not given)	–	> 100 µM	–	> 100 µM	–	37.4 µM and 49.8 µM	–	21.6 µM and 26.7 µM	–	68.7 µM and 90 µM	–	> 100 µM	–	25.6 µM and 38.2 µM	–	33.1 µM and 37.5 µM	–	31.9 µM and 26.2 µM	–	> 100 µM
COc1cc(Nc2cn[nH]c2-c2ccc(Cl)cc2)cc(OC)c1OC	4.6 µM	69.6 µM	6.96 µM	> 69.3 µM	6.82 µM	41.5 µM	15.7 µM	> 83.6 µM	7.41 µM	> 76.8 µM	3.7 µM	19.1 µM	3.61 µM	18.9 µM	2.18 µM	11.3 µM	3.42 µM	> 81.9 µM	6.91 µM	44.5 µM
COCCOc1cc(F)c2c(Nc3ccc(NC(=O)Cn4cc(C(C)C)nn4)cc3)ncnc2c1	> 100 µM	> 100 µM	41 µM	> 100 µM	44.7 µM	> 100 µM	> 100 µM	> 100 µM	51.5 µM	> 100 µM	51.3 µM	> 100 µM	85.4 µM	> 100 µM	53.5 µM	> 100 µM	> 100 µM	> 100 µM	22.2 µM	> 100 µM
CCN(CC)CCOc1ccc(/C=C(\C#N)c2ccc(OCCN(CC)CC)cc2)cc1	–	> 52.4 µM	–	> 92 µM	–	39.9 µM	–	31.3 µM	–	> 58.8 µM	–	36.6 µM	–	31.9 µM	–	28 µM	–	44.2 µM	–	22.6 µM
O=S(=O)([O-])c1ccc2c(c1)-c1nc-2nc2[n-]c(nc3nc(nc4[n-]c(n1)c1ccc(S(=O)(=O)[O-])cc41)-c1cc(S(=O)(=O)[O-])ccc1-3)c1ccc(S(=O)(=O)[O-])cc21.[Cu+2].[Na+]	> 100 µM	> 100 µM	> 68.4 µM	> 100 µM	> 100 µM	> 100 µM	> 100 µM	> 100 µM	> 74.3 µM	> 100 µM	4.65 µM	> 100 µM	21.7 µM	> 100 µM	98.4 µM	> 100 µM	0.58 µM	> 39.5 µM	> 100 µM	> 100 µM
CC(C)(C)OC(=O)NCC(=O)OCc1ccccc1	–	> 100 µM	–	> 100 µM	–	> 100 µM	–	> 100 µM	–	> 100 µM	–	> 100 µM	–	> 100 µM	–	> 100 µM	–	> 100 µM	–	> 100 µM
Cn1c(=O)c2c(nc(Nc3cc(=O)[nH]c(=O)[nH]3)n2Cc2ccccc2)n(C)c1=O	> 100 µM	> 100 µM	> 100 µM	> 100 µM	> 100 µM	> 100 µM	> 100 µM	> 100 µM	> 100 µM	> 100 µM	> 100 µM	> 100 µM	65.8 µM	> 100 µM	> 100 µM	> 100 µM	> 100 µM	> 100 µM	> 100 µM	> 100 µM
CCCCOC(=O)C1C(c2ccc(Cl)cc2)NC(c2ccc(Cl)cc2)C(C(=O)OCCCC)S1(=O)=O (stereo not given)	–	> 100 µM	–	> 100 µM	–	> 100 µM	–	> 100 µM	–	> 100 µM	–	> 100 µM	–	> 100 µM	–	> 100 µM	–	> 100 µM	–	> 100 µM
COc1ccc(NC(=O)CCc2cc(-c3ccc(O)c(OC)c3)nc(NC#N)n2)cc1	–	> 100 µM	–	> 100 µM	–	> 100 µM	–	> 100 µM	–	> 100 µM	–	> 100 µM	–	> 100 µM	–	> 100 µM	–	> 100 µM	–	> 100 µM
Oc1[nH]c2ccccc2c1N=Nc1ccccc1Cl	–	> 100 µM	–	> 83.6 µM	–	> 100 µM	–	> 100 µM	–	15.2 µM	–	> 100 µM	–	> 100 µM	–	> 100 µM	–	> 100 µM	–	40.6 µM
CNCCCn1cc(C2=C(c3cn(C)c4ccccc34)C(=O)NC2=O)c2ccccc21	5.41 µM	11.4 µM	6.29 µM	22.7 µM	4.3 µM	8.52 µM	4.57 µM	8.81 µM	3.99 µM	13.9 µM	4.53 µM	9.19 µM	3.96 µM	7.67 µM	4.73 µM	10.3 µM	4.91 µM	20.4 µM	5.59 µM	13.4 µM
NC(=NCCCOc1ccc(Cl)cc1)Nc1ccc(C(F)(F)F)cc1	1.47 µM	4.12 µM	2.79 µM	19.5 µM	1.87 µM	3.88 µM	1.72 µM	3.56 µM	2.27 µM	7.03 µM	2 µM	4.97 µM	1.81 µM	3.61 µM	1.7 µM	3.28 µM	2.59 µM	9.75 µM	2.28 µM	6.43 µM
